Values of other authors as cited in patent US6103487A, “Method of treating cancer” (Merck & Co., Inc., priority 1998, dated 2000).

Tests used:
[1] = system: farnesyl-protein transferase; settings: by inhibiting HMG-CoA reductase
[2] = system: Ras; settings: inhibits the rate-limiting step in the isoprenoid biosynthetic pathway; positive control

CC[C@H](C)C(=O)O[C@H]1C[C@@H](C)C=C2C=C[C@H](C)[C@H](CC[C@@H]3C[C@@H](O)CC(=O)O3)[C@H]21 [lovastatin]
Indirect inhibition of farnesyl-protein transferase in vivo [1]: Indirect inhibition of farnesyl-protein transferase in vivo has been demonstrated | block of Ras processing in cells [2]: blocks Ras processing in cells

CC[C@H](C)C(=O)O[C@H]1CCC=C2C=C[C@H](C)[C@H](CC[C@@H]3C[C@@H](O)CC(=O)O3)[C@H]21 [compactin]
Indirect inhibition of farnesyl-protein transferase in vivo [1]: Indirect inhibition of farnesyl-protein transferase in vivo has been demonstrated
